# Laboratory results from patent US9365588B2, “Benzoxazines as modulators of ion channels” (Vertex Pharmaceuticals Incorporated, priority 2011, dated 2016).
# Molecular target: human NaV 1.7 (Homo sapiens, UniProt Q15858)
# Assay: E-VIPR optical membrane potential assay with electrical stimulation
# Assay type: cell-based
# Details: sodium channel inhibition; read-out: Binned Activity Data (IC50)
# In short: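 Membrane-potential read-out: background-subtracted 460 nm/580 nm ratio during a 9 s current-controlled stimulus, 400 Hz scan. Before stimulation, NaV1.7-HEK cells carried coumarin/oxonol dye and compound (final DMSO 0.625%) for 20–35 min at room temperature; tetracaine 125 μM served as positive control.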
# Chain of human NaV 1.7 (Q15858 whole entry): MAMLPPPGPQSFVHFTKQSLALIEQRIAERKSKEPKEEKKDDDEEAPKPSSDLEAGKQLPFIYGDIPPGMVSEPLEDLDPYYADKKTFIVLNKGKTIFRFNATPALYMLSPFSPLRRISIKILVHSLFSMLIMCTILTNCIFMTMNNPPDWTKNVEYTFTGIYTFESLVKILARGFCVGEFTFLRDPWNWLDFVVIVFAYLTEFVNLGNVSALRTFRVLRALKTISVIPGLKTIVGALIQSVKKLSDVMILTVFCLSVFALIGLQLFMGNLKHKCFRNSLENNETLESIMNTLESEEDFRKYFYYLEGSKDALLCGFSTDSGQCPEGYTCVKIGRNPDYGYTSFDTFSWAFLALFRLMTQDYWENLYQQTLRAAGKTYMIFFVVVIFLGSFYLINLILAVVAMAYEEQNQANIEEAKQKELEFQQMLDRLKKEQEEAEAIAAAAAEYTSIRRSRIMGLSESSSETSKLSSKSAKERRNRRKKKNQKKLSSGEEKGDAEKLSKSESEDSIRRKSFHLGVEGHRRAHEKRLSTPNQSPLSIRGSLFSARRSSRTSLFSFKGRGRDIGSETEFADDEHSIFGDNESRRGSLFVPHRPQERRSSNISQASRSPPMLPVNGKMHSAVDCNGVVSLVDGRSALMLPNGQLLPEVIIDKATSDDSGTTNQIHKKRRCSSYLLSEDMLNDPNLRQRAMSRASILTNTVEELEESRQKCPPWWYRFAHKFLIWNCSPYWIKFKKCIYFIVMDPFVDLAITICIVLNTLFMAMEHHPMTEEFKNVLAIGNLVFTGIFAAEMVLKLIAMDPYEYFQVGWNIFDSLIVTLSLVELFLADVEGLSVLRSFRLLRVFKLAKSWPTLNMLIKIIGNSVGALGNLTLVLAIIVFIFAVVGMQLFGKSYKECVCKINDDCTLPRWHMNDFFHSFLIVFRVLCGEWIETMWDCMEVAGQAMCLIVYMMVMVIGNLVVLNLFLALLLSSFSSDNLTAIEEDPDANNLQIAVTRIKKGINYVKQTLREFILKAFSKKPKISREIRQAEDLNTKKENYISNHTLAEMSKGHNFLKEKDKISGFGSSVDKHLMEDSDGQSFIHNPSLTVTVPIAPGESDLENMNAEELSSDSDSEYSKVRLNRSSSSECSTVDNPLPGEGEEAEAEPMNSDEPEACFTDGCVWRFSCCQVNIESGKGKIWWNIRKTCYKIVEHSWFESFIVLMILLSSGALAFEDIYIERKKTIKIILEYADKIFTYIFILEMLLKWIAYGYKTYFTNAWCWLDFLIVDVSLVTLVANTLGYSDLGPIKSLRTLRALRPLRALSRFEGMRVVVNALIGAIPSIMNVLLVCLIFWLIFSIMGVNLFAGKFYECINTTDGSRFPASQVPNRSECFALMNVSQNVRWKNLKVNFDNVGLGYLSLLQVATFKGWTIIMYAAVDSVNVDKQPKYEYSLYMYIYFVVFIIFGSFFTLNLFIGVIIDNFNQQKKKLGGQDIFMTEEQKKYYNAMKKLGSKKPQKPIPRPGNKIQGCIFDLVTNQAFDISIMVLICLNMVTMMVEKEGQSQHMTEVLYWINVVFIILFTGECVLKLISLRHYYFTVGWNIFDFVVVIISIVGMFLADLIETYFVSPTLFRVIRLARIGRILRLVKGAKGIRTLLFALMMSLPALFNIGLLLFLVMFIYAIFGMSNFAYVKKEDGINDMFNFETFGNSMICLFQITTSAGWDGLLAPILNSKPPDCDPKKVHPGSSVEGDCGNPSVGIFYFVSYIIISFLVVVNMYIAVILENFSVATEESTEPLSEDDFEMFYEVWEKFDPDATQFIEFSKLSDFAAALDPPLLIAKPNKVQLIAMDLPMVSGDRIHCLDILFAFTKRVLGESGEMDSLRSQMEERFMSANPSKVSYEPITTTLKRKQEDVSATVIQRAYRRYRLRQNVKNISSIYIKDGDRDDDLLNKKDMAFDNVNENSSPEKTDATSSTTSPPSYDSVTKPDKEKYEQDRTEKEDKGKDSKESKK
row,Compound,IC50 [nM]
1,COc1cccc(Cl)c1C(=O)N1CCC2(CC1)Oc1ccccc1-c1c2cnn1C [Compound 299],> 5000
2,Cn1ncc2c1-c1cc(F)ccc1OC21CCN(C(=O)c2ccccc2C(F)F)CC1 [Compound 309],> 5000
3,Cn1ncc2c1-c1ccccc1OC21CCN(C(=O)c2cc3ccccc3n2C)CC1 [Compound 317],> 5000
4,Cn1ncc2c1-c1ccccc1OC21CCN(C(=O)c2ccccc2NS(C)(=O)=O)CC1 [Compound 319],2000 to 5000
5,Cn1ncc2c1-c1ccccc1OC21CCN(C(=O)c2ccnc3ccccc23)CC1 [Compound 322],2000 to 5000
6,CC(C)(N)c1ccc(C(=O)N2CCC3(CC2)Oc2ccccc2-n2c(C#N)ccc23)cc1 [Compound 323],2000 to 5000
7,Cc1nc2ccc(C(=O)N3CCC4(CC3)Oc3ccccc3-c3c4cnn3C)cc2s1 [Compound 324],> 5000
8,Cn1cc2c(n1)-c1ccccc1OC21CCN(C(=O)c2ccc3nc(N)sc3c2)CC1 [Compound 325],2000 to 5000
9,Cn1ncc2c1-c1ccccc1OC21CCN(C(=O)c2csc(-c3ccccc3)n2)CC1 [Compound 331],> 5000
10,CC(C)(Oc1ccc(C(=O)N2CCC3(CC2)Oc2ccccc2-n2c(C#N)ccc23)cc1)C(=O)O [Compound 334],> 5000
11,O=C(c1ccc(OC(F)F)cc1)N1CCC2(CC1)Oc1ccccc1-n1c(C(F)(F)F)ccc12 [Compound 341],> 5000
12,N#Cc1ccccc1C(=O)N1CCC2(CC1)Oc1cc(Cl)ccc1-n1cccc12 [Compound 343],> 5000
13,Cn1ncc2c1-c1ccccc1OC21CCN(C(=O)c2cccc3c2OC(F)(F)O3)CC1 [Compound 345],≤ 2000
14,Cn1ncc2c1-c1ccccc1OC21CCN(C(=O)c2cccc3c2OCCO3)CC1 [Compound 346],≤ 2000
15,CCc1ccc(C(=O)N2CCC3(CC2)Oc2ccccc2-n2c(C(F)(F)F)ccc23)cc1OC [Compound 347],≤ 2000
16,COc1cc(C(=O)N2CCC3(CC2)Oc2cc(Cl)ccc2-n2cccc23)ccc1O[C@@H]1CCC[C@H]1O [Compound 348],≤ 2000
17,Cc1ccc(C(=O)N2CCC3(CC2)Oc2cc(F)ccc2-n2cccc23)cc1C [Compound 349],≤ 2000
18,Cn1ncc2c1-c1ccccc1OC21CCN(C(=O)c2cccc3c2OC(C)(C)C3)CC1 [Compound 350],≤ 2000
19,CCCOc1ccc(C(=O)N2CCC3(CC2)Oc2ccccc2-n2cccc23)cc1OC [Compound 352],≤ 2000
20,COc1ccc(F)c(F)c1C(=O)N1CCC2(CC1)Oc1ccccc1-c1c2cnn1C [Compound 353],> 5000
21,COc1ccc(C(=O)N2CCC3(CC2)Oc2ccccc2-c2c3cnn2C)c(OC)c1OC [Compound 355],≤ 2000
22,CC(=O)c1ccc2n1-c1ccccc1OC21CCN(C(=O)c2ccc(S(C)(=O)=O)c(C)c2)CC1 [Compound 357],≤ 2000

row,Compound,IC50 [nM]
1,COc1ccc(OC)c(C(=O)N2CCC3(CC2)Oc2ccccc2-c2c3cnn2C)c1 [Compound 358],2000 to 5000
2,Cc1cc(C(=O)N2CCC3(CC2)Oc2ccccc2-n2c(C)ccc23)ccc1OC(C)C [Compound 359],≤ 2000
3,CC(=O)c1ccc2n1-c1ccccc1OC21CCN(C(=O)c2ccccc2OC(F)F)CC1 [Compound 360],≤ 2000
4,CCCOc1ccc(C(=O)N2CCC3(CC2)Oc2ccccc2-n2cccc23)cc1C#N [Compound 361],≤ 2000
5,COc1cc(C(=O)N2CCC3(CC2)Oc2ccccc2-c2c3cnn2C)ccc1OCCC(C)C [Compound 362],≤ 2000
6,Cc1cc(C(=O)N2CCC3(CC2)Oc2ccccc2-n2c(C#N)ccc23)ccc1S(=O)(=O)C(C)C [Compound 363],≤ 2000
7,CC(C)(O)c1ccc(C(=O)N2CCC3(CC2)Oc2ccccc2-n2c(C#N)ccc23)cc1CO [Compound 364],≤ 2000
8,COc1cc(C(=O)N2CCC3(CC2)Oc2cc(Cl)ccc2-n2cccc23)ccc1OC1CCC(O)C1 (stereo not shown) [Compound 366],≤ 2000
9,O=C(c1cccc(C(F)(F)F)c1)N1CCC2(CC1)Oc1cc(Cl)ccc1-n1cccc12 [Compound 367],≤ 2000
10,Cn1ncc2c1-c1ccccc1OC21CCN(C(=O)c2ccc3c(c2)C(C)(C)CO3)CC1 [Compound 369],≤ 2000
11,Cc1cc(C(=O)N2CCC3(CC2)Oc2cc(Cl)ccc2-c2c3cnn2C)ccc1OC(C)C [Compound 370],≤ 2000
12,CCn1ncc2c1-c1ccccc1OC21CCN(C(=O)c2ccc(C(C)(C)C)c(OC)c2)CC1 [Compound 372],≤ 2000
13,COc1cc(C(=O)N2CCC3(CC2)Oc2cc(Cl)ccc2-n2cccc23)ccc1OCC(N)=O [Compound 373],≤ 2000
14,Cc1ccc2c(c1)OC1(CCN(C(=O)c3ccc(OC(C)C)c(CO)c3)CC1)c1ccc(C#N)n1-2 [Compound 375],≤ 2000
15,CC(C)Oc1ccc(C(=O)N2CCC3(CC2)Oc2ccccc2-n2cccc23)cc1C(F)(F)F [Compound 376],≤ 2000
16,CCc1ccc(C(=O)N2CCC3(CC2)Oc2cc(F)ccc2-n2cccc23)cc1C [Compound 377],≤ 2000
17,COc1cc(C(=O)N2CCC3(CC2)Oc2cc(F)ccc2-n2cccc23)ccc1OCC(C)(C)OC [Compound 378],≤ 2000
18,CC(=O)c1ccc2n1-c1ccccc1OC21CCN(C(=O)c2ccc(C(C)(C)O)cc2)CC1 [Compound 379],≤ 2000
19,Cn1ncc2c1-c1ccccc1OC21CCN(C(=O)c2ccccc2OC(F)F)CC1 [Compound 381],≤ 2000
20,Cn1ncc2c1-c1cc(F)ccc1OC21CCN(C(=O)c2ccccc2OC(F)(F)F)CC1 [Compound 382],≤ 2000
21,COc1ccccc1C(=O)N1CCC2(CC1)Oc1ccc(F)cc1-c1c2cnn1C [Compound 383],≤ 2000
22,COc1cnccc1C(=O)N1CCC2(CC1)Oc1ccccc1-c1c2cnn1C [Compound 384],> 5000

# Other lines, results leading:
row,IC50 [nM],Compound
1,≤ 2000,Cn1ncc2c1-c1ccccc1OC21CCN(C(=O)c2ccccc2OC2CCOCC2)CC1 [Compound 292]
2,≤ 2000,N#Cc1ccc2n1-c1ccccc1OC21CCN(C(=O)c2ccc(OC[C@@H](O)CO)cc2)CC1 [Compound 293]
3,≤ 2000,CC(C)(C)c1ccc(C(=O)N2CCC3(CC2)Oc2ccccc2-n2c(C#N)ccc23)cc1 [Compound 295]
4,≤ 2000,CC(C)Oc1ccc(C(=O)N2CCC3(CC2)Oc2ccccc2-n2c3ccc2S(C)(=O)=O)cc1CO [Compound 296]
5,≤ 2000,CC(C)S(=O)(=O)c1ccc(C(=O)N2CCC3(CC2)Oc2ccccc2-n2c(C#N)ccc23)cc1 [Compound 297]
6,≤ 2000,COCCOc1ccc(C(=O)N2CCC3(CC2)Oc2ccccc2-c2c3ccn2C)cc1OC [Compound 298]
7,≤ 2000,COc1ccc(C(=O)N2CCC3(CC2)Oc2cc(Cl)ccc2-n2c(CO)ccc23)cc1C(F)(F)F [Compound 300]
8,≤ 2000,COC[C@@H](C)Oc1ccc(C(=O)N2CCC3(CC2)Oc2cc(F)ccc2-n2cccc23)cc1OC [Compound 303]
9,≤ 2000,N#Cc1cc(F)cc(C(=O)N2CCC3(CC2)Oc2cc(Cl)ccc2-n2cccc23)c1 [Compound 304]
10,≤ 2000,COCCOc1ccc(C(=O)N2CCC3(CC2)Oc2cc(F)ccc2-n2cccc23)cc1OC [Compound 305]
11,≤ 2000,CC(C)Oc1ccc(C(=O)N2CCC3(CC2)Oc2ccccc2-c2c3cnn2C)cc1C#N [Compound 306]
12,≤ 2000,COc1cc(C(=O)N2CCC3(CC2)Oc2ccccc2-c2nn(C)cc23)ccc1OC(C)(C)C [Compound 307]
13,≤ 2000,CC(C)(O)Cc1ccc(C(=O)N2CCC3(CC2)Oc2ccccc2-n2c(C#N)ccc23)cc1 [Compound 308]
14,≤ 2000,CC(C)Oc1ccc(C(=O)N2CCC3(CC2)Oc2ccccc2-n2c(C#N)ccc23)c(CO)c1 [Compound 310]
15,≤ 2000,CC(=O)c1ccc2n1-c1ccccc1OC21CCN(C(=O)c2ccc(S(=O)(=O)C(C)(C)C)cc2)CC1 [Compound 311]
16,≤ 2000,COCCOc1cc(F)c(C(=O)N2CCC3(CC2)Oc2cc(F)ccc2-n2cccc23)cc1OC [Compound 312]

row,IC50 [nM],Compound
1,≤ 2000,COc1cc(C(=O)N2CCC3(CC2)Oc2ccccc2-c2c3cnn2C)ccc1OC(C)(C)C [Compound 313]
2,≤ 2000,CCc1ccc(C(=O)N2CCC3(CC2)Oc2ccccc2-n2ccc(C)c23)cc1OC [Compound 314]
3,≤ 2000,Cc1cc(C(=O)N2CCC3(CC2)Oc2ccccc2-n2ccc(C)c23)ccc1OC(C)C [Compound 315]
4,≤ 2000,COc1cc(C(=O)N2CCC3(CC2)Oc2ccccc2-n2ccnc23)ccc1OC(C)C [Compound 316]
5,≤ 2000,CC(C)Oc1ccc(C(=O)N2CCC3(CC2)Oc2ccccc2-n2c(C#N)ccc23)c(F)c1 [Compound 318]
6,≤ 2000,CCn1ncc2c1-c1ccccc1OC21CCN(C(=O)c2ccccc2OC(F)(F)F)CC1 [Compound 321]
7,≤ 2000,CC[C@H](C)Oc1ccc(C(=O)N2CCC3(CC2)Oc2ccccc2-n2cccc23)cc1OC [Compound 326]
8,≤ 2000,CC(C)(C)S(=O)(=O)c1ccc(C(=O)N2CCC3(CC2)Oc2ccccc2-n2cccc23)cc1 [Compound 327]
9,≤ 2000,COc1c(F)cccc1C(=O)N1CCC2(CC1)Oc1cc(Cl)ccc1-c1c2cnn1C [Compound 328]
10,≤ 2000,O=C(c1cccnc1Oc1ccccc1)N1CCC2(CC1)Oc1ccccc1-n1c(C(F)(F)F)ccc12 [Compound 330]
11,≤ 2000,CN(C)CCOc1ccc(C(=O)N2CCC3(CC2)Oc2ccccc2-n2cccc23)cc1C(F)(F)F [Compound 333]
12,≤ 2000,COc1cc(S(=O)(=O)C(C)C)ccc1C(=O)N1CCC2(CC1)Oc1ccccc1-c1c2cnn1C [Compound 336]
13,≤ 2000,O=C(c1ccccc1OC(F)F)N1CCC2(CC1)Oc1ccccc1-c1c2cnn1C(F)(F)F [Compound 337]
14,≤ 2000,Cc1cc(C(=O)N2CCC3(CC2)Oc2cc(C#N)ccc2-n2cccc23)ccc1OC(C)C [Compound 338]
15,≤ 2000,Cn1ncc2c1-c1cc(F)ccc1OC21CCN(C(=O)c2ccccc2OC(F)F)CC1 [Compound 340]
16,≤ 2000,COc1cc(C(=O)N2CCC3(CC2)Oc2ccccc2-n2cccc23)ccc1OC1CCCC1 [Compound 342]
